# Test results taken from patent publication US20260001864A1, “COMPOUND CONTAINING SULFAMIDE STRUCTURE, AND PREPARATION METHOD THEREFOR AND APPLICATION THEREOF, AND PHARMACEUTICAL COMPOSITION AND APPLICATION” (Nanjing Shuohui Pharmatechnology Co., Ltd, priority 2021, published 2026).
# Test system: histamine-induced gastric acid secretion
# Test: Inhibition of histamine-induced gastric acid secretion in rats (pylorus ligation)
# Assay type: in vivo, rat
# Settings: SD rats, 2 mg/kg by gavage, total acid over 3 h after histamine
# Experimental: 70 SPF-level SD rats with a weight of 180-220 g (Hangzhou Medical College (produced)), randomly grouped by weight, including negative control groups (isovolumetric saline) and model control groups (isovolumetric saline), and compounds obtained in the foregoing preparation examples of the present invention (i.e., compounds or compound hydrochlorides) (2 mg/kg or 4 mg/kg), 10 rats each group, including 5 males and 5 females. The rats were fasted, but were allowed to drink water for 24 h. After 24 h, the rats were given the compound at 1 ml/100 g by gavage, once in each group, and the rats in the negative control groups and the model groups were given an equal volume of saline by gavage. After that, the rats were anesthetized with chloral hydrate 300 mg/kg (1 ml/100 g) and fixed on a rat plate, and the abdominal wall was incised along the abdominal midline from the subxiphoid process of the sternum, and the incision was approximately 2-3 cm and was made on the left costal margin, and the stomach was exposed to the incision by gently pushing it with the fingers upwards. The pylorus was ligated with a thread under the pylorus (other neighboring vessels were not ligated), and the abdominal wall incision was sutured. The animals were given histamine dihydrochloride (30 mg/10 ml/kg) subcutaneously after 1 h of gavage of the test compound or saline. After 3 h of histamine administration, the rats were asphyxiated with excess CO2, stomachs were removed, stomach contents were collected and centrifuged at 3000 rpm/min for 10 min, and the acid solution was titrated with 0.1 mol/L NaOH to pH7.0. The total acidity and acid inhibition rate during the 3 h period were calculated.
# Acid inhibition rate (%)=(Total acid in the model group−total acid in the test group)/total acid in the model group×100%
row,SMILES,Acid inhibition rate [%]
1,CNCc1cc(-c2ccc(OC(C)C3CCOCC3)cc2F)n(S(=O)(=O)c2cccnc2)c1 (stereo not drawn) [Compound 8],71
2,CNCc1cc(-c2ccc(OCC3CCO3)cc2F)n(S(=O)(=O)c2cccnc2)c1 (stereo not drawn) [Compound A15],64
3,CNCc1cc(-c2ccc(OCc3ccn(C)n3)cc2F)n(S(=O)(=O)c2cccnc2)c1 [Compound A8],58
4,CNCc1cc(-c2ccc(OCC3CCOC3)cc2F)n(S(=O)(=O)c2cccnc2)c1 (stereo not drawn) [Compound A13],60
5,CNCc1cc(-c2ccc(OCC3CO3)cc2F)n(S(=O)(=O)c2cccnc2)c1 (stereo not drawn) [Compound A11],81
6,CNCc1cc(-c2ccc(OCc3cccnc3F)cc2F)n(S(=O)(=O)c2cccnc2)c1 [Compound A1],68
7,CNCc1cc(-c2ccc(OCc3ccc(OC)nc3)cc2F)n(S(=O)(=O)c2cccnc2)c1 [Compound A4],60
8,CNCc1cc(-c2ccc(OCc3cccnn3)cc2F)n(S(=O)(=O)c2cccnc2)c1 [Compound A7],53
9,CNCc1cc(-c2ccc(OCC3CCCO3)cc2F)n(S(=O)(=O)c2cccnc2)c1 (stereo not drawn) [Compound A14],63

# Biological target: H+/K+-ATPase (rabbit gastric mucosal microsomes) (Oryctolagus cuniculus (Rabbit), UniProt P27112)
# Sequence (P27112 whole entry): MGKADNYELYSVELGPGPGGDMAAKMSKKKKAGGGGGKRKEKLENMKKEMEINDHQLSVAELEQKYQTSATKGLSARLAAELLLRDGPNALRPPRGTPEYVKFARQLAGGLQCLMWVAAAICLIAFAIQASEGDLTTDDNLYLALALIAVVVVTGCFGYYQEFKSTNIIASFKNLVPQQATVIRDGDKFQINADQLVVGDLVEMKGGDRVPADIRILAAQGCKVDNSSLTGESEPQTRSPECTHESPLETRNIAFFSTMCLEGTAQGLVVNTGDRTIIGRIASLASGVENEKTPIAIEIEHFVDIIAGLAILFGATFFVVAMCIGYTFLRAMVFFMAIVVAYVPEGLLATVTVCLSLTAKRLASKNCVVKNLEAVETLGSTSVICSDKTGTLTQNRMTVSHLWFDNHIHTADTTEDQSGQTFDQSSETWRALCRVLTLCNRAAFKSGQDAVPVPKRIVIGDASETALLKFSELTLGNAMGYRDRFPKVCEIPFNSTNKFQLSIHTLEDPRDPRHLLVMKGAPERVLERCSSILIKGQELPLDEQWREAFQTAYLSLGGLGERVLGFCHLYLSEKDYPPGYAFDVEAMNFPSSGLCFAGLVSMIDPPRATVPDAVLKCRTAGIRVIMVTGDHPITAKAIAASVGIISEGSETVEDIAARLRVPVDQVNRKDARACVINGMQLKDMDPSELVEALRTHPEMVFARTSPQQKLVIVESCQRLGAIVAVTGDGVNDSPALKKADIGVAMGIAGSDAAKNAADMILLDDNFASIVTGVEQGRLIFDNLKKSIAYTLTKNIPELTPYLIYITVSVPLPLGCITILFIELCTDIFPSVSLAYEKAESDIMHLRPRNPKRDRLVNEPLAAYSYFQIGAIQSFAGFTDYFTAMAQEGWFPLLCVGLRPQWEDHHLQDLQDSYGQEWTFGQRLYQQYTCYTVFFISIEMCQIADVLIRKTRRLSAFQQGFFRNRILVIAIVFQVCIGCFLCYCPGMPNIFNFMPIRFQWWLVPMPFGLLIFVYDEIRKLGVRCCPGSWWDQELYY
# Sequence (P18597 whole entry partner): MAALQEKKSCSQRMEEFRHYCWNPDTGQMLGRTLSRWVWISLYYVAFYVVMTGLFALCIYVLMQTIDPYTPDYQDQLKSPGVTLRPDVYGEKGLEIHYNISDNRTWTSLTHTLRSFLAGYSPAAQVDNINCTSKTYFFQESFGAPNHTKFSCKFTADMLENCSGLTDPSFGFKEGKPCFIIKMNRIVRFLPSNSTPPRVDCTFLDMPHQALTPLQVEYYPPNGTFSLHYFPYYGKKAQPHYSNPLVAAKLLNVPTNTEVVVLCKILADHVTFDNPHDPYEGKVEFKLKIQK
# Test: In vitro screening test of H+/K+-ATPase inhibition (malachite green)
# Assay type: biochemical
# Settings: pH 6.5, 37° C. 30 min, read-out: IC50, inhibitory effect on H+/K+-ATPase activity
# Excerpt: This test example evaluates the inhibitory effects of the compounds of the present invention on the activity of H+/K+-ATPase by an in vitro screening test, and expresses them with the IC50 values of the compounds (obtained by calculating the inhibition rates at different concentrations).
# • Compound solutions: The products (i.e., the compounds or the hydrochloride salt of compounds) obtained in the foregoing preparation examples of the present invention were each independently dissolved in DMSO to form solutions at suitable concentrations; • Buffer I: 50 mmol/L HEPEs-Tris, pH=6.5, 5 mmol/L magnesium chloride, […] valinomycin (J&K Scientific Ltd., goods No.: 227304); • Buffer II: 50 mmol/L HEPEs-Tris, pH=6.5, 5 mmol/L magnesium chloride, […] valinomycin, 5 mmol/L potassium chloride; • 5-adenosine triphosphate (ATP, Sigma-Aldrich, goods No.: A2383) solution: Dilute ATP with buffer I to 5 mM; • Malachite green solution: Dissolve 0.12 wt % malachite green (J&K Scientific Ltd., goods No.: 913120) in 2.5 mol/L sulfuric acid, 7.5 wt % ammonium molybdate (J&K Scientific Ltd., goods No.: 128321) and 11% Tween 20(V/V). During use, sulfuric acid, ammonium molybdate and Tween 20 are mixed in a ratio of 100:25:2; • Rabbit gastric mucosal microsomes (rich in H+/K+-ATPase, self-extracted), extracted by sucrose gradient centrifugation: The rabbit stomach was washed with tap water and 3M NaCl solution, respectively, and then the surface water was removed with filter paper. A pre-cooled homogenization buffer (4 ml/g tissue) was added and homogenized for 2-5 min in a tissue homogenizer. After the homogenizing, if there are large tissue particles, they can be removed by centrifugation (600 g, 10 min). The supernatant was then transferred to a clean centrifuge tube and centrifuged at 20,000 g for 30 min, then the supernatant was transferred to a clean centrifuge tube and further centrifuged at 100,000 g for 90 min and the precipitate was collected; the precipitate was suspended in homogenate and blown evenly, and the protein concentration was measured by the Bradford's method and adjusted to 10 mg/ml; 7.5 wt % Ficoll's layering solution was added in equal proportions. After centrifugation at 100,000 g for 60 min, the middle layer (H^+/K^+-ATPase-enriched gastric membranes) was collected in a clean centrifuge tube, diluted with homogenate by 4-5 times, and then centrifuged at 100,000 g for another 90 min, and the precipitate was collected; the precipitate was suspended in homogenate and homogenized in a glass homogenizer, and the protein concentration was measured by the Bradford's method and adjusted to 22.5 mg/ml. It was frozen at −80° C. and stored for future use.
# 5 μL of rabbit gastric mucosal microsomes (H^+/K^+-ATPase) was added to 45 μL of buffer II, then 5 μL of compound solution was added, and then 5 μL of 5 mM ATP solution was added to start the reaction and pre-react at 37° C. for 30 min. 15 μL of malachite green solution was added to terminate the reaction, balancing was conducted at room temperature for 20 min, and read the optical absorbance at 620 nm.
# Meanwhile, the reaction of the same volume was carried out without addition of potassium chloride as a background, which was subtracted when calculating enzymatic activity.
row,SMILES,IC50 [nM]
1,CNCc1cc(-c2ccc(OC(C)C3CCOCC3)cc2F)n(S(=O)(=O)c2cccnc2)c1 (stereo not drawn) [Compound 8],72.1
2,CNCc1cc(-c2ccc(OCC3CCOC3)cc2F)n(S(=O)(=O)c2cccnc2)c1 (stereo not drawn) [Compound A13],128
3,CNCc1cc(-c2ccc(OCC3CO3)cc2F)n(S(=O)(=O)c2cccnc2)c1 (stereo not drawn) [Compound A11],14.1
4,CNCc1cc(-c2ccc(OCc3cccnc3F)cc2F)n(S(=O)(=O)c2cccnc2)c1 [Compound A1],66.7
5,CNCc1cc(-c2ccc(O[C@H](C)c3c(Cl)ccc(F)c3Cl)cc2F)n(S(=O)(=O)c2cccnc2)c1 [Compound 76],470
6,CNCc1cc(-c2ccc(OC(C)c3c(F)cccc3F)cc2F)n(S(=O)(=O)c2cccc(OCCCCOC)c2)c1 (stereo not drawn) [Compound 91],693
7,CNCc1cc(-c2ccc(OCc3ccc4ccccc4c3)cc2F)n(S(=O)(=O)c2cccc(OCCCCOC)c2)c1 [Compound 90],2690
8,CNCc1cc(-c2ccc(OC(C)c3cc(F)cc(F)c3)cc2F)n(S(=O)(=O)c2cccc(OCCCOC)c2)c1 (stereo not drawn) [Compound 89],1330
9,CNCc1cc(-c2ccc(OC(C)c3c(F)cccc3F)cc2F)n(S(=O)(=O)c2cccc(OCC3CC3)c2)c1 (stereo not drawn) [Compound 72],342
10,CNCc1cc(-c2ccc(OCC(C)C)cc2F)n(S(=O)(=O)c2cccnc2)c1 [Compound 44],500
11,CNCc1cc(-c2ccc(OC(C)C3CCOCC3)cc2F)n(S(=O)(=O)c2cc(F)ccc2F)c1 (stereo not drawn) [Compound 12],138
12,CNCc1cc(-c2ccc(OC(C)c3c(F)cccc3F)cc2F)n(S(=O)(=O)c2cccc(OCC3CCCC3)c2)c1 (stereo not drawn) [Compound 85],9780
13,CCNCc1cc(-c2ccc(OCC3CCOCC3)cc2F)n(S(=O)(=O)c2cccnc2)c1 [Compound 46],639
14,CNCc1cc(-c2ccc(OCCc3cc(F)cc(F)c3)cc2F)n(S(=O)(=O)c2cccnc2)c1 [Compound 99],72.6
15,CNCc1cc(-c2ccc(OCc3ccc(C)cc3C)cc2F)n(S(=O)(=O)c2cccnc2)c1 [Compound 73],209
16,CNCc1cc(-c2ccc(OCc3ccc(C(=O)O)cc3)cc2F)n(S(=O)(=O)c2cccnc2)c1 [Compound 64],164
17,CNCc1cc(-c2ccc(OC(C)c3cc(F)cc(F)c3)cc2F)n(S(=O)(=O)c2cccc(OCCCCOC)c2)c1 (stereo not drawn) [Compound 92],1910
18,CNCc1cc(-c2ccc(OC(C)C3CCOCC3)cc2F)n(S(=O)(=O)c2cccc(C#N)c2)c1 (stereo not drawn) [Compound 13],114
19,CNCc1cc(-c2ccc(OCC3CCOCC3)cc2F)n(S(=O)(=O)c2cccc(F)c2)c1 [Compound 24],136
20,CNCc1cc(-c2ccc(OC(C)C3CCOCC3)cc2F)n(S(=O)(=O)c2cccc(OCC3CCC3)c2)c1 (stereo not drawn) [Compound 33],883
21,CNCc1cc(-c2ccc(OC(C)c3cc(F)cc(F)c3)cc2F)n(S(=O)(=O)c2cccc(C#N)c2)c1 (stereo not drawn) [Compound 70],88.1
22,CNCc1cc(-c2ccc(OC(C)c3cc(F)ccc3F)cc2F)n(S(=O)(=O)c2cccnc2)c1 (stereo not drawn) [Compound 65],80.5
23,CNCc1cc(-c2ccc(OCC3CCNCC3)cc2F)n(S(=O)(=O)c2cccnc2)c1 [Compound 21],2790
24,CNCc1cc(-c2ccc(OCc3ccoc3)cc2F)n(S(=O)(=O)c2cccnc2)c1 [Compound 100],101
25,CCOc1ccc(-c2cc(CNC)cn2S(=O)(=O)c2cccnc2)c(F)c1 [Compound 41],567
26,CCCCCOc1cccc(S(=O)(=O)n2cc(CNC)cc2-c2ccc(OCC3CCOCC3)cc2F)c1 [Compound 31],1210
27,CNCc1cc(-c2ccc(OCc3cc(F)ccc3F)cc2F)n(S(=O)(=O)c2cccc(Cl)c2)c1 [Compound 78],98.5
28,CNCc1cc(-c2ccc(OC(C)C3CCOCC3)cc2F)n(S(=O)(=O)c2cccc(F)c2)c1 (stereo not drawn) [Compound 19],233
29,CNCc1cc(-c2ccc(OCc3cccnc3C)cc2F)n(S(=O)(=O)c2cccnc2)c1 [Compound A2],155
30,CNCc1cc(-c2ccc(OC(C)c3cc(F)cc(F)c3)cc2F)n(S(=O)(=O)c2cccc(OCC3CC3)c2)c1 (stereo not drawn) [Compound 71],496

# Next, values leading:
row,IC50 [nM],SMILES
1,18.4,CNCc1cc(-c2ccc(OCc3ccn(C)n3)cc2F)n(S(=O)(=O)c2cccnc2)c1 [Compound A8]
2,43.4,CNCc1cc(-c2ccc(OCc3ccccc3OC)cc2F)n(S(=O)(=O)c2cccc(OCCOC)c2)c1 [Compound 87]
3,46.3,CNCc1cc(-c2ccc(OCc3ccc(F)c(F)c3)cc2F)n(S(=O)(=O)c2cccnc2)c1 [Compound 57]
4,30.9,CNCc1cc(-c2ccc(OCC3CCCCC3)cc2F)n(S(=O)(=O)c2cccnc2)c1 [Compound 4]
5,51.1,CNCc1cc(-c2ccc(OCc3cccc4c3OCCO4)cc2F)n(S(=O)(=O)c2cccnc2)c1 [Compound 96]
6,17.8,CNCc1cc(-c2ccc(OCc3cc(F)ccc3F)cc2F)n(S(=O)(=O)c2cccnc2)c1 [Compound 54]
7,51.3,CNCc1cc(-c2ccc(OCc3ccc(OC(F)F)cc3)cc2F)n(S(=O)(=O)c2cccnc2)c1 [Compound 61]
8,41.3,CNCc1cc(-c2ccc(OCc3ccccc3OC(F)F)cc2F)n(S(=O)(=O)c2cccnc2)c1 [Compound 59]
9,35.9,CNCc1cc(-c2ccc(OCc3cccc4ccccc34)cc2F)n(S(=O)(=O)c2cccnc2)c1 [Compound 62]
10,20.9,CNCc1cc(-c2ccc(OCC3CCCC3)cc2F)n(S(=O)(=O)c2cccnc2)c1 [Compound 3]
11,25.7,CNCc1cc(-c2ccc(OCc3cc(F)cc(F)c3)cc2F)n(S(=O)(=O)c2cccnc2)c1 [Compound 58]
12,58.5,CNCc1cc(-c2ccc(OCC3CCOCC3)cc2F)n(S(=O)(=O)c2cccc(Cl)c2)c1 [Compound 25]
13,9.5,CNCc1cc(-c2ccc(OCc3cccc4c3OCO4)cc2F)n(S(=O)(=O)c2cccc(C#N)c2)c1 [Compound 95]
14,8.6,CNCc1cc(-c2ccc(OCc3ccc(F)cc3F)cc2F)n(S(=O)(=O)c2cccnc2)c1 [Compound 55]
15,11.9,CNCc1cc(-c2ccc(OCc3cccc4c3OCCO4)cc2F)n(S(=O)(=O)c2cccc(C#N)c2)c1 [Compound 97]
